Test results published in PubChem BioAssay AID330 (DTP/NCI, 2004).
“And” between values parts separate entries of the source, which are not always exact repeats. Identical values can stand only once. Toxic doses and inconclusive results are not listed. Rule for the calls: active = survival T/C of 150% or more; inactive = T/C below 125% in these data.

Tested on: P388 leukemia ip, CD2F1 mice, survival T/C
Assay: NCI In Vivo Anticancer Drug Screen. Data for tumor model P388 Leukemia (intraperitoneal) in CD2F1 (CDF1) mice
Conditions: endpoint: median survival time, higher = longer survival
Outline: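 Mice carrying the transplanted tumor received test compound or vehicle. Survival was recorded in each group, and the value is the treated-group measurement divided by that of the vehicle-treated control group.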

[1] = dose: 50.0 mg/kg/injection, schedule: Q01DX009 (ip), vehicle: Klucel (hydroxypropylcellulose) (HPC)
[2] = dose: 100.0 mg/kg/injection, schedule: Q01DX009 (ip), vehicle: Klucel (hydroxypropylcellulose) (HPC)
[3] = dose: 200.0 mg/kg/injection, schedule: Q01DX009 (ip), vehicle: Klucel (hydroxypropylcellulose) (HPC)
[4] = dose: 60.0 mg/kg/injection, schedule: Q01DX005 (ip), vehicle: saline
[5] = dose: 120.0 mg/kg/injection, schedule: Q01DX005 (ip), vehicle: saline
[6] = dose: 240.0 mg/kg/injection, schedule: Q01DX005 (ip), vehicle: saline
[7] = dose: 60.0 mg/kg/injection, schedule: Q01DX005 (ip), vehicle: saline with Tween-80
[8] = dose: 50.0 mg/kg/injection, schedule: Q01DX005 (ip), vehicle: saline
[9] = dose: 100.0 mg/kg/injection, schedule: Q01DX005 (ip), vehicle: saline
[10] = dose: 200.0 mg/kg/injection, schedule: Q01DX005 (ip), vehicle: saline
[11] = dose: 25.0 mg/kg/injection, schedule: Q01DX009 (ip), vehicle: saline
[12] = dose: 50.0 mg/kg/injection, schedule: Q01DX009 (ip), vehicle: saline
[13] = dose: 100.0 mg/kg/injection, schedule: Q01DX009 (ip), vehicle: saline
[14] = dose: 15.0 mg/kg/injection, schedule: Q01DX005 (ip), vehicle: saline with Tween-80
[15] = dose: 30.0 mg/kg/injection, schedule: Q01DX005 (ip), vehicle: saline with Tween-80

Measured: T/C

COc1cc2c(c(O)c1OC)-c1c(cc(OC)c(OC)c1OC)CC(C)C(C)C2 (configuration not stated)
inactive: dose: 11.25 mg/kg/injection, schedule: Q01DX009 (ip), vehicle: saline + alcohol 100 % of control and 95 % of control | dose: 11.3 mg/kg/injection, schedule: Q01DX009 (ip), vehicle: saline + alcohol 106 % of control | dose: 22.5 mg/kg/injection, schedule: Q01DX009 (ip), vehicle: saline + alcohol 101 % of control and 115 % of control and 96 % of control | dose: 45.0 mg/kg/injection, schedule: Q01DX009 (ip), vehicle: saline + alcohol 106 % of control and 121 % of control and 97 % of control | dose: 90.0 mg/kg/injection, schedule: Q01DX009 (ip), vehicle: saline + alcohol 113 % of control and 121 % of control and 92 % of control | dose: 180.0 mg/kg/injection, schedule: Q01DX009 (ip), vehicle: saline + alcohol 96 % of control

Cc1ccc(S(=O)(=O)N(CCc2ccccc2)S(=O)(=O)c2ccc(C)cc2)cc1
inactive: [1] 94 % of control | [2] 100 % of control | [3] 109 % of control

CN(C)NP(=O)(NN(C)C)c1ccccc1
inactive: [4] 100 % of control | [5] 103 % of control | [6] 109 % of control

C[Si]1(C)N(c2ccccc2)[Si](C)(c2ccccc2)N1c1ccccc1
inactive: dose: 50.0 mg/kg/injection, schedule: Q01DX005 (ip), vehicle: Klucel (hydroxypropylcellulose) (HPC) 94 % of control | dose: 100.0 mg/kg/injection, schedule: Q01DX005 (ip), vehicle: Klucel (hydroxypropylcellulose) (HPC) 111 % of control | dose: 200.0 mg/kg/injection, schedule: Q01DX005 (ip), vehicle: Klucel (hydroxypropylcellulose) (HPC) 111 % of control

COc1ccc(-c2c(C(=O)O)oc3cc(O)ccc3c2=O)cc1OC
inactive: [7] 99 % of control | dose: 120.0 mg/kg/injection, schedule: Q01DX005 (ip), vehicle: saline with Tween-80 97 % of control | dose: 240.0 mg/kg/injection, schedule: Q01DX005 (ip), vehicle: saline with Tween-80 96 % of control

CC(C)Cc1cc(-c2cc(CC(C)C)on2)no1
inactive: [4] 100 % of control | [5] 104 % of control | [6] 100 % of control

Cc1nc2[nH]ncc2c(=O)n1N
inactive: [8] 97 % of control | [9] 108 % of control | [10] 101 % of control

ClC1=CCCC(C(Br)Br)C1 (configuration not stated)
inactive: [1] 99 % of control | [2] 100 % of control | [3] 102 % of control

CSc1cc(SC)c(SC)nn1
inactive: dose: 50.0 mg/kg/injection, schedule: Q01DX009 (ip), vehicle: saline with Tween-80 106 % of control | dose: 100.0 mg/kg/injection, schedule: Q01DX009 (ip), vehicle: saline with Tween-80 109 % of control | dose: 200.0 mg/kg/injection, schedule: Q01DX009 (ip), vehicle: saline with Tween-80 98 % of control

CCC[CH2][Sn]([CH2]CCC)([CH2]CCC)[CH2]CCNCCCN(C)C
inactive: dose: 6.25 mg/kg/injection, schedule: Q01DX009 (ip), vehicle: saline 96 % of control | dose: 12.5 mg/kg/injection, schedule: Q01DX009 (ip), vehicle: saline 97 % of control | [11] 96 % of control | [12] 90 % of control | [13] 86 % of control

CCN(CC)C(=S)N1C(=O)C2C3CCC(O3)C2C1=O (configuration not stated)
inactive: [14] 101 % of control | [15] 104 % of control | [7] 110 % of control

CCCCc1c(O)c2c(=O)[nH]c(C)nc2oc1=O
inactive: dose: 3.75 mg/kg/injection, schedule: Q01DX005 (ip), vehicle: Klucel (hydroxypropylcellulose) (HPC) 96 % of control | dose: 7.5 mg/kg/injection, schedule: Q01DX005 (ip), vehicle: Klucel (hydroxypropylcellulose) (HPC) 95 % of control | dose: 15.0 mg/kg/injection, schedule: Q01DX005 (ip), vehicle: Klucel (hydroxypropylcellulose) (HPC) 92 % of control

CCCCCCCCCCCOCC(=O)O
inactive: [1] 98 % of control | [2] 92 % of control

CCCCCCC(=O)/C=C/c1ccc(OCOC)cc1
inactive: dose: 50.0 mg/kg/injection, schedule: Q01DX009 (ip), vehicle: saline + alcohol 97 % of control | dose: 100.0 mg/kg/injection, schedule: Q01DX009 (ip), vehicle: saline + alcohol 121 % of control | dose: 200.0 mg/kg/injection, schedule: Q01DX009 (ip), vehicle: saline + alcohol 100 % of control

CN(C)C1CC2CCCCC2CC1O (configuration not stated)
inactive: dose: 25.0 mg/kg/injection, schedule: Q04DX003 (ip), vehicle: saline 93 % of control | dose: 50.0 mg/kg/injection, schedule: Q04DX003 (ip), vehicle: saline 99 % of control | dose: 100.0 mg/kg/injection, schedule: Q01DX001 (ip), vehicle: saline 104 % of control | dose: 100.0 mg/kg/injection, schedule: Q04DX003 (ip), vehicle: saline 103 % of control | dose: 200.0 mg/kg/injection, schedule: Q01DX001 (ip), vehicle: saline 98 % of control

O=C(O)c1cc(Br)cc(Br)c1O.O=C(O)c1cc(Br)cc(Br)c1O.[Cu]
inactive: [14] 92 % of control | [15] 94 % of control | [7] 101 % of control and 92 % of control

CC1(C)OCC(C2OC(O)C3OC(C)(C)OC32)O1 (configuration not stated)
inactive: [8] 100 % of control | [9] 101 % of control | [10] 107 % of control

CC1=CC(=NN=c2cc(C)n([O-])c(C)c2)C=C(C)[N+]1=O
inactive: [11] 118 % of control

CCCC1OC(C)(Cc2ccccc2)OCC1CC (configuration not stated)
inactive: [13] 103 % of control | dose: 200.0 mg/kg/injection, schedule: Q01DX009 (ip), vehicle: saline 113 % of control | dose: 400.0 mg/kg/injection, schedule: Q01DX009 (ip), vehicle: saline 109 % of control

COC(C)(C)c1ccc(C)c(O)c1
inactive: dose: 4.38 mg/kg/injection, schedule: Q01DX005 (ip), vehicle: Klucel (hydroxypropylcellulose) (HPC) 96 % of control | dose: 8.75 mg/kg/injection, schedule: Q01DX005 (ip), vehicle: Klucel (hydroxypropylcellulose) (HPC) 95 % of control | dose: 17.5 mg/kg/injection, schedule: Q01DX005 (ip), vehicle: Klucel (hydroxypropylcellulose) (HPC) 92 % of control | dose: 35.0 mg/kg/injection, schedule: Q01DX005 (ip), vehicle: Klucel (hydroxypropylcellulose) (HPC) 91 % of control

Cc1ccc(S(=O)(=O)NN=C2C(C)C(c3ccccc3)NC(c3ccccc3)C2C)cc1 (configuration not stated)
inactive: dose: 200.0 mg/kg/injection, schedule: Q01DX001 (ip), vehicle: Klucel (hydroxypropylcellulose) (HPC) 88 % of control

Cc1cnc(N)c(S(=O)(=O)O)c1
inactive: [11] 86 % of control | [12] 88 % of control

CC(C)(C)OC(OC1(C)COC1=O)C1(C)CO1 (configuration not stated)
inactive: [8] 87 % of control | dose: 50.0 mg/kg/injection, schedule: Q01DX005 (ip), vehicle: water 103 % of control | [9] 86 % of control | dose: 100.0 mg/kg/injection, schedule: Q01DX005 (ip), vehicle: water 105 % of control | [10] 97 % of control | dose: 200.0 mg/kg/injection, schedule: Q01DX005 (ip), vehicle: water 90 % of control

Cc1c(C(N)=O)c2ccccc2c2ccccc12
inactive: dose: 12.5 mg/kg/injection, schedule: Q01DX005 (ip), vehicle: saline with Tween-80 109 % of control | dose: 25.0 mg/kg/injection, schedule: Q01DX005 (ip), vehicle: saline with Tween-80 95 % of control | dose: 50.0 mg/kg/injection, schedule: Q01DX005 (ip), vehicle: saline with Tween-80 93 % of control and 95 % of control
